Values of other authors, collected in patent publication US20050142225A1, “Stabilised pharmaceutical compositions on the basis of polyoxyethlated castor oil and method for manufacturing the same” (Pliva-Lachema A.S., priority 2003, published 2005).
Read-outs that look alike come from different tables or passages of the source.

CC(=O)O[C@H]1C(=O)[C@@]2(C)[C@H]([C@H](OC(=O)c3ccccc3)[C@]3(O)C[C@H](OC(=O)[C@H](O)[C@@H](NC(=O)c4ccccc4)c4ccccc4)C(C)=C1C3(C)C)[C@]1(OC(C)=O)CO[C@@H]1C[C@@H]2O [taxol, paclitaxel]
content of taxol (composition with Cremophor EL, without an acid (pH of 9.1), after 7 days at 40° C.): 86,7% | content of taxol (composition with pH adjusted by acetic acid to 6.7, after 7 days): 97,5% | content of taxol (composition with pH adjusted by citric acid to 6.2, after 7 days): 96,6%
